Reference: ChEMBL document CHEMBL2151015, “Discovery of a potent, selective, and orally bioavailable acidic 11β-hydroxysteroid dehydrogenase type 1 (11β-HSD1) inhibitor: discovery of 2-[(3S)-1-[5-(cyclohexylcarbamoyl)-6-propylsulfanylpyridin-2-yl]-3-piperidyl]acetic acid (AZD4017)” (J Med Chem, 2012)
≈ marks a conversion by molar mass, not a printed value.

Legend:
[1] = Fraction unbound in rat plasma after 18 to 19 hrs by equilibrium dialysis; assay type: ADME, cell-free
[2] = Intrinsic clearance in rat hepatocytes assessed per 10^6 cells
[3] = Oral bioavailability in rat; assay type: ADME, organism-based; conditions: in vivo
in vivo = conditions: rat
[4] = Octanol-buffer partition coefficient, log D of the compound after 30 mins by shake flask method at pH 7.4
[5] = biological target: 11-beta-hydroxysteroid dehydrogenase 1 (Homo sapiens, UniProt P28845); assay: biochemical
Description: Inhibition of N-terminal His6-tagged full length human 11betaHSD1 expressed in baculovirus infected cells using cortisone as substrate after 25 mins by HTRF assay

[6] = AUC (0 to t) in po dosed Sprague-Dawley rat pre-dosed with ABT administered 2 hrs […] measured up to 24 hrs; assay type: ADME, organism-based; set-up: time < 24 hr, route oral; conditions: plasma
[7] = AUC (0 to t) in po dosed Sprague-Dawley rat measured up to 24 hrs; assay type: ADME, organism-based; set-up: time < 24 hr, route oral; conditions: plasma
[8] = Apparent permeability across human Caco2 cells; assay type: ADME, cell-based; conditions: Caco-2
[9] = Cmax in po dosed Sprague-Dawley rat pre-dosed with ABT administered 2 hrs […] measured up to 24 hrs; assay type: ADME, organism-based; set-up: route oral; conditions: in vivo
[10] = Aqueous solubility of the compound after 24 hrs by LC-UV analysis at pH 7.4; assay type: physicochemical; conditions: aqueous medium
[11] = Cmax in po dosed Sprague-Dawley rat measured up to 24 hrs; assay type: ADME, organism-based; set-up: route oral; conditions: in vivo
[12] = Clearance in po dosed Sprague-Dawley rat pre-dosed with ABT administered 2 hrs prior to ABT administration measured up to 24 hrs; conditions: in vivo
[13] = Clearance in po dosed Sprague-Dawley rat measured up to 24 hrs; conditions: in vivo

Sequence of 11-beta-hydroxysteroid dehydrogenase 1 (P28845 whole entry): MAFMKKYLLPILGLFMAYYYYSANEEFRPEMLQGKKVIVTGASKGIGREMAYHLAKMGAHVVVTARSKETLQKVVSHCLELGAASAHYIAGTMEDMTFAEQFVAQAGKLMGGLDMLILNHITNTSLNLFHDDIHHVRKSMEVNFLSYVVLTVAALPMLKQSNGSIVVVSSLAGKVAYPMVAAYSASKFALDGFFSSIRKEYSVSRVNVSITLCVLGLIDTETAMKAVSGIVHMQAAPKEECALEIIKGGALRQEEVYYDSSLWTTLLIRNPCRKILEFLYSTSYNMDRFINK

Row | fraction unbound [1] | hepatocyte CLint [2] [µL/min/1e6 cells] | bioavailability [3] [%] | clearance (in vivo) [mL/min/kg] | logD at 0.5 h ([4]; octanol/buffer) | SMILES | other results
1 | > 0.5 | 49 | 11 | 110 | 2.3 | CCCSc1ncccc1C(=O)N[C@@H]1[C@@H]2CC3C[C@H]1C[C@@](O)(C3)C2 | –
2 | 0.006 | 15 | – | – | 1.7 | CCCSc1nc(Oc2cccc(CCC(=O)O)c2)ccc1C(=O)NC1CCCCC1 | –
3 | 0.41 | < 2 | 81 | 2.5 | < 0.5 | CCCSc1ncccc1C(=O)N[C@H]1CC[C@@H](C(=O)O)CC1 | IC50 [5]: > 30 µM
4 | 0.1 | > 350 | 0 | 48 | 3.4 | CCCSc1ncccc1C(=O)N(C)C1CCCCC1 | –
5 | 0.41 | 140 | – | – | – | CCCSc1ncccc1C(=O)N(C)[C@H]1[C@@H]2CC3C[C@H]1C[C@@](O)(C3)C2 | logD at 0.5 h ([4]; octanol/water): 2.5
6 | 0.29 | 130 | 0 | 30 | – | CCCSc1ncccc1C(=O)NC1CCC(F)(F)CC1 | –
7 | 0.019 | 10 | > 100 | 12 | 1.4 | CCCSc1nc(N2CCCCC2C(=O)O)ccc1C(=O)NC1CCCCC1 (stereo not given) | –
8 | 0.06 | < 2 | 57 | 4 | 1.6 | CCCCc1nc(N2CCC[C@@H](CC(=O)O)C2)ccc1C(=O)NC1CCCCC1 | –
9 | 0.029 | < 2 | > 100 | 6 | – | CCCSc1nc(N[C@H]2CC[C@H](C(=O)O)CC2)ccc1C(=O)NC1CCCCC1 | –
10 | 0.2 | 140 | 0 | 24 | – | CCCSc1ncccc1C(=O)N(C)[C@@H]1[C@@H]2CC3C[C@H]1C[C@@](O)(C3)C2 | logD at 0.5 h ([4]; octanol/water): 2.5
11 | 0.032 | 6 | 90 | 4 | 2 | CCCSc1nc(N2CCC(CC(=O)O)CC2)ccc1C(=O)NC1CCCCC1 | –
12 | 0.018 | 12 | 39 | 15 | – | CCCN(C)c1nc(N2CCC[C@@H](CC(=O)O)C2)ccc1C(=O)NC1CCCCC1 | logD at 0.5 h ([4]; octanol/water): 2.3
13 | 0.029 | 7 | 72 | 4 | 2.3 | CCCNc1nc(N2CCC[C@@H](CC(=O)O)C2)ccc1C(=O)NC1CCCCC1 | –
14 | 0.006 | 8 | 79 | 1 | 2.2 | CCCSc1nc(N2CCC[C@H](CC(=O)O)C2)ccc1C(=O)NC1CCCCC1 | –
15 | 0.13 | – | 0 | – | 3.2 | CCCSc1ncccc1C(=O)NC1CCCCC1 | AUC(0-t) at 24 h [6]: 2510 ng·h/mL; AUC(0-t) at 24 h [7]: 80 ng·h/mL; Papp [8]: 27 ×10⁻⁶ cm/s; Cmax [9]: 514 ng/mL; solubility at 24 h [10]: 82 µM (≈ 22.8 µg/mL); Cmax [11]: 39 ng/mL
16 | 0.005 | 272 | 0 | – | 3.9 | O=S(=O)(Cc1c(F)cccc1F)N1CCN(c2ncccc2C(F)(F)F)CC1 | CL/F [12]: 14 mL/min/kg; CL/F at 24 h [13]: 20 mL/min/kg; Papp [8]: 10 ×10⁻⁶ cm/s; solubility at 24 h [10]: 2 µM (≈ 0.843 µg/mL)
17 | 0.49 | 90 | 0 | 46 | 1.6 | CCCSc1ncccc1C(=O)N(C)C1CCOCC1 | –
18 | 0.13 | 120 | 0 | 39 | 2 | CCCSc1ncccc1C(=O)N1CCCC1c1ccncc1 (stereo not given) | –
19 | 0.003 | < 2 | – | – | 1.8 | CCCSc1nc(Oc2ccc(CC(=O)O)cc2)ccc1C(=O)NC1CCCCC1 | –
20 | 0.006 | 9 | > 100 | 9 | 2.8 | CCCOc1nc(N2CCC[C@@H](CC(=O)O)C2)ccc1C(=O)NC1CCCCC1 | –
21 | 0.015 | 8 | 81 | 8 | 2.6 | CCCSc1nc(NC[C@H]2CC[C@H](C(=O)O)CC2)ccc1C(=O)NC1CCCCC1 | –
22 | 0.023 | 6 | 45 | 4 | 1.7 | CCCSc1nc(N2CCCC(C(=O)O)C2)ccc1C(=O)NC1CCCCC1 (stereo not given) | –
23 | 0.03 | < 2 | > 100 | 8 | – | CCCSc1nc(N2CCC(C(=O)O)CC2)ccc1C(=O)NC1CCCCC1 | logD at 0.5 h ([4]; octanol/water): 1.6
